Peptide text beside a SMILES is read from it.
Assays:
SARS-CoV-2 = test: Antiviral activity against SARS-CoV-2 USA-WA1/2020 infected in African green monkey Vero 76 cells assessed as reduction in virus-induced cytopathic effect measured after 5 days by neutral red dye uptake analysis; assay type: functional, organism-based; settings: Severe acute respiratory syndrome coronavirus 2, USA-WA1/2020, Vero 76, 120 h
[1] = Bioavailability in CD-1 mouse at 20 mg/kg, ip measured for 24 hrs by LC-MS/MS analysis; assay type: ADME, organism-based; settings: in vivo

SMILES | EC50 (SARS-CoV-2) | bioavailability [1]
CC(C)C[C@H](NC(=O)OCc1ccccc1)C(=O)N[C@@H](C[C@@H]1CCNC1=O)C(O)S(=O)(=O)O (some centres undefined) | 490 nM | 
O=C[C@H](C[C@@H]1CCNC1=O)NC(=O)[C@H](Cc1cccc(F)c1)NC(=O)c1cc2ccccc2[nH]1 |  | 80%
CSCC[C@@H](C=O)NC(=O)[C@H](CC(C)C)NC(=O)[C@H](CC(C)C)NC(C)=O (Ac-Leu-Leu-Met-aldehyde) | 490 nM | 
CC(C)(C)NC(=O)N[C@H](C(=O)N1C[C@H]2[C@@H]([C@H]1C(=O)NC(CC1CCC1)C(=O)C(N)=O)C2(C)C)C(C)(C)C (some centres undefined) [BOCEPREVIR] | 490 nM | 

From ChEMBL document CHEMBL5223064, “A review of the latest research on Mpro targeting SARS-COV inhibitors” (RSC Med Chem, 2021)
